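96-well plates; 48 h exposure; 5 concentrations. Endpoints by linear interpolation between flanking doses. Not reached: highest tested concentration assigned. GI50 = concentration required for 50% inhibition of growth. TGI denotes the concentration required for complete inhibition of growth.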
Columns and labels:
Experiment in all cases: NCI anticancer screen, dose series, 48 h
MOLT-4 leukemia = tested on: MOLT-4 leukemia
SF-268 CNS = tested on: SF-268 CNS
ACHN renal = tested on: ACHN renal
PC-3 prostate = tested on: PC-3 prostate
LOX IMVI melanoma = tested on: LOX IMVI melanoma
MDA-MB-468 breast = tested on: MDA-MB-468 breast
OVCAR-8 ovarian = tested on: OVCAR-8 ovarian
SNB-75 CNS = tested on: SNB-75 CNS
U251 CNS = tested on: U251 CNS
NCI-H460 lung = tested on: NCI-H460 lung
HS 578T breast = tested on: HS 578T breast
MALME-3M melanoma = tested on: MALME-3M melanoma
SF-295 CNS = tested on: SF-295 CNS
T-47D breast = tested on: T-47D breast
K-562 leukemia = tested on: K-562 leukemia
KM12 colon = tested on: KM12 colon
RXF 393 renal = tested on: RXF 393 renal
NCI-H226 lung = tested on: NCI-H226 lung
SK-MEL-5 melanoma = tested on: SK-MEL-5 melanoma
HL-60(TB) leukemia = tested on: HL-60(TB) leukemia
EKVX NSCLC = tested on: EKVX NSCLC
NCI-H23 lung = tested on: NCI-H23 lung
CCRF-CEM leukemia = tested on: CCRF-CEM leukemia
BT-549 breast = tested on: BT-549 breast
SN12C renal = tested on: SN12C renal
UACC-62 melanoma = tested on: UACC-62 melanoma
A498 renal = tested on: A498 renal
HT29 colon = tested on: HT29 colon
SK-OV-3 ovarian = tested on: SK-OV-3 ovarian
SK-MEL-28 melanoma = tested on: SK-MEL-28 melanoma
DU-145 prostate = tested on: DU-145 prostate
OVCAR-5 ovarian = tested on: OVCAR-5 ovarian
UACC-257 melanoma = tested on: UACC-257 melanoma
HOP-62 NSCLC = tested on: HOP-62 NSCLC
SR leukemia = tested on: SR leukemia
NCI-H522 lung = tested on: NCI-H522 lung
HCT-15 colon = tested on: HCT-15 colon
COLO 205 colon = tested on: COLO 205 colon
OVCAR-3 ovarian = tested on: OVCAR-3 ovarian
MDA-MB-435 = tested on: MDA-MB-435
HOP-92 NSCLC = tested on: HOP-92 NSCLC
OVCAR-4 ovarian = tested on: OVCAR-4 ovarian
CAKI-1 renal = tested on: CAKI-1 renal
SW-620 colon = tested on: SW-620 colon
SNB-19 CNS = tested on: SNB-19 CNS
MCF7 breast = tested on: MCF7 breast
SK-MEL-2 melanoma = tested on: SK-MEL-2 melanoma
RPMI-8226 leukemia = tested on: RPMI-8226 leukemia
786-0 renal = tested on: 786-0 renal
NCI/ADR-RES ovarian = tested on: NCI/ADR-RES ovarian
IGROV1 ovarian = tested on: IGROV1 ovarian
UO-31 renal = tested on: UO-31 renal
M14 melanoma = tested on: M14 melanoma
TK-10 renal = tested on: TK-10 renal
HCC-2998 colon = tested on: HCC-2998 colon
SF-539 CNS = tested on: SF-539 CNS
A549 NSCLC = tested on: A549 NSCLC
HCT-116 colon = tested on: HCT-116 colon
MDA-MB-231 breast = tested on: MDA-MB-231 breast

## Nc1ccc(-c2ccc3ncnc(N4CCc5cc(F)c(Cl)cc54)c3c2)cn1
MOLT-4 leukemia
  GI50: 2.68 µM
  TGI: 8.4 µM
SF-268 CNS
  GI50: 2.2 µM
  TGI: 50.2 µM
ACHN renal
  GI50: 0.739 µM
  TGI: 12.9 µM
PC-3 prostate
  GI50: 2.3 µM
  TGI: 27 µM
LOX IMVI melanoma
  GI50: 3.31 µM
  TGI: 24.6 µM
MDA-MB-468 breast
  GI50: 0.657 µM
  TGI: 2.31 µM
OVCAR-8 ovarian
  GI50: 4.31 µM
  TGI: > 100 µM
SNB-75 CNS
  GI50: 0.545 µM
  TGI: 4.21 µM
U251 CNS
  GI50: 3.3 µM
  TGI: 24.6 µM
NCI-H460 lung
  GI50: 2.73 µM
  TGI: 15.8 µM
HS 578T breast
  GI50: 1.14 µM
  TGI: 4.6 µM
MALME-3M melanoma
  GI50: 1.57 µM
  TGI: 10.1 µM
SF-295 CNS
  GI50: 2.39 µM
  TGI: 16 µM
T-47D breast
  GI50: 0.895 µM
  TGI: 10.2 µM
K-562 leukemia
  GI50: 6.24 µM
  TGI: > 100 µM
KM12 colon
  GI50: 6.73 µM
  TGI: 75.5 µM
RXF 393 renal
  GI50: 1.14 µM
  TGI: 5.22 µM
NCI-H226 lung
  GI50: 1.59 µM
  TGI: 40.8 µM
SK-MEL-5 melanoma
  GI50: 3.07 µM
  TGI: 14.4 µM
HL-60(TB) leukemia
  GI50: 2.61 µM
  TGI: 20.8 µM
EKVX NSCLC
  GI50: 1.26 µM
  TGI: 13.8 µM
NCI-H23 lung
  GI50: 5.26 µM
  TGI: > 100 µM
CCRF-CEM leukemia
  GI50: 3.31 µM
  TGI: 26.2 µM
BT-549 breast
  GI50: 1.35 µM
  TGI: 8.24 µM
SN12C renal
  GI50: 2.11 µM
  TGI: > 100 µM
UACC-62 melanoma
  GI50: 1.91 µM
  TGI: 14.6 µM
A498 renal
  GI50: 0.185 µM
  TGI: 2.56 µM
HT29 colon
  GI50: 3.26 µM
  TGI: 23 µM
SK-OV-3 ovarian
  GI50: 2.18 µM
  TGI: 7.09 µM
SK-MEL-28 melanoma
  GI50: 2.76 µM
  TGI: 15.3 µM
DU-145 prostate
  GI50: 1.61 µM
  TGI: 15.8 µM
OVCAR-5 ovarian
  GI50: 2.32 µM
  TGI: > 100 µM
UACC-257 melanoma
  GI50: 5.76 µM
  TGI: 23.1 µM
HOP-62 NSCLC
  GI50: 1.5 µM
  TGI: 27.3 µM
SR leukemia
  GI50: 3.24 µM
  TGI: > 100 µM
NCI-H522 lung
  GI50: 2.37 µM
  TGI: 19.4 µM
HCT-15 colon
  GI50: 3.49 µM
  TGI: 30.3 µM
COLO 205 colon
  GI50: 5.58 µM
  TGI: 21.2 µM
OVCAR-3 ovarian
  GI50: 1.35 µM
  TGI: 12.3 µM
MDA-MB-435
  GI50: 3.67 µM
  TGI: 16.9 µM
HOP-92 NSCLC
  GI50: 2.37 µM
  TGI: 20.7 µM
OVCAR-4 ovarian
  GI50: 3.11 µM
  TGI: 18.8 µM
CAKI-1 renal
  GI50: 1.11 µM
  TGI: 12.7 µM
SW-620 colon
  GI50: 5.96 µM
  TGI: 27.5 µM
SNB-19 CNS
  GI50: 2.86 µM
  TGI: 47.8 µM
MCF7 breast
  GI50: 1.77 µM
  TGI: 12.8 µM
SK-MEL-2 melanoma
  GI50: 5.55 µM
  TGI: 44.6 µM
RPMI-8226 leukemia
  GI50: 3.51 µM
  TGI: 70.1 µM
786-0 renal
  GI50: 1.82 µM
  TGI: 14.7 µM
NCI/ADR-RES ovarian
  GI50: 3.2 µM
  TGI: 35.5 µM
IGROV1 ovarian
  GI50: 0.639 µM
  TGI: 2.88 µM
UO-31 renal
  GI50: 0.823 µM
  TGI: 14.5 µM
M14 melanoma
  GI50: 3.69 µM
  TGI: 18 µM
TK-10 renal
  GI50: 0.504 µM
  TGI: 9.78 µM
HCC-2998 colon
  GI50: 4.3 µM
  TGI: 66.1 µM
SF-539 CNS
  GI50: 2.83 µM
  TGI: 13.3 µM
A549 NSCLC
  GI50: 1.55 µM
  TGI: 15.3 µM
HCT-116 colon
  GI50: 3.91 µM
  TGI: 28.3 µM
MDA-MB-231 breast
  GI50: 2.84 µM
  TGI: 15.2 µM
